Test results taken from patent US11344510B2, “Arylcyclohexylamine derivatives and their use in the treatment of psychiatric disorders” (Gilgamesh Pharmaceuticals, Inc., priority 2019, dated 2022).
Like-named read-outs stand apart in the source and are kept apart here.

How the values were obtained:
[1] = target: T1, dopamine transporter (DAT) (Homo sapiens, UniProt Q01959); assay: Fluorescent substrate uptake inhibition, DAT; type: cell-based; conditions: 10 μM, CHO cells expressing DAT
T1 construct: expressed in transfected cells; host or cells: CHO (uptake)

[2] = MLM stability (High Activity); type: in vitro ADME, BALB/c mice; conditions: male, BALB/c, mouse, liver microsomes, pH 7.4, Condition 2 (High Activity), 1.0 mg protein/mL
In short: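 Pooled male BALB/c mouse liver microsomes (1.0 mg/mL) in 100 mM PBS pH 7.4 with NADPH-regenerating system; compound 1 μM, 37 °C, five time points over 60 min, duplicate; NADPH-free controls. Parent remaining by LC-MS/MS; kel, t1/2 and Clint from linear regression of ln(AUC) versus time.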

[3] = tested on: monoamine transporters, MATs (SERT, NET, DAT, VMAT2); assay: Monoamine uptake inhibition, monoamine transporters collectively; type: cell-based; conditions: in words
[4] = target: T2, vesicular monoamine transporter 2 (VMAT2) (Homo sapiens, UniProt Q05940); assay: Fluorescent substrate uptake inhibition, VMAT2; type: cell-based; conditions: 10 μM, transfected cells
T2 construct: expressed in transfected cells

[5] = target: T3, serotonin transporter (SERT) (Homo sapiens, UniProt P31645); assay: Fluorescent substrate uptake inhibition, SERT; type: cell-based; conditions: 10 μM, HEK293 cells expressing SERT
T3 construct: expressed in transfected cells; host or cells: HEK293

[6] = Oral bioavailability in mice, Method B; type: in vivo; conditions: CD-1 mice; for F: 10 mg/kg; for half-life / Cmax / AUC(0-inf): male, mouse
Experimental: Animals. Male CD-1 mice were used in these studies Animals were randomly assigned to treatment groups and were fasted for 4 h before oral dosing.
Drugs. Test compounds were dissolved in a vehicle consisting of normal saline (compounds 19S and 88R) or a mixture of 5% v/v N-methyl-2-pyrrolidone, 5% v/v Solutol HS-15, and 90% v/v normal saline (compounds 11S, 11R, 114S, and 114R). They were then administered intravenously (iv) or orally (po) at a dose of 10 mg/kg (calculated based on freebase) and at a volume of 5 mL/kg body weight. Compounds were tested as the racemates (indicated by “rac” nomenclature) or pure enantiomers (indicated by “R” or “S” nomenclature).
Sample Collection and Bioanalysis. Blood samples (approximately 60 μL) were collected under light isoflurane anesthesia (Surgivet®) from the retro orbital plexus at 0.08, 0.25, 0.5, 1, 2, 4, 8, and 24 h (4 animals per time point) Immediately after blood collection, plasma was harvested by centrifugation at 4000 rpm for 10 min at 4° C. and samples were stored at −70±10° C. until bioanalysis. Following blood collection, animals were immediately sacrificed, the abdominal vena-cava was cut open, and the whole body was perfused from the heart using 10 mL of normal saline, and brain samples were collected from all animals After isolation, brain samples were rinsed three times in ice-cold normal saline (for 5-10 seconds/rinse using ˜5-10 mL normal saline in disposable petri dish for each rinse) and dried on blotting paper. Brain samples were homogenized using ice-cold phosphate-buffered saline (pH 7.4). Total homogenate volume was three times the tissue weight. All homogenates were stored at −70±10° C. until bioanalysis. For bioanalysis, 25 μL aliquots of plasma/brain study samples or spiked plasma/brain calibration standards were added to individual pre-labeled micro-centrifuge tubes followed by 100 μL of an internal standard solution (glipizide, 500 ng/mL in acetonitrile) except for blanks, where 100 μL of acetonitrile was added. Samples were vortexed for 5 minutes and then centrifuged for 10 minutes at 4000 rpm at 4° C. Following centrifugation, 100 μL of each clear supernatant was transferred to a 96 well plate and analyzed with a fit-for-purpose LC-MS/MS method, with authentic samples of each analyte used for calibration and identification.
Data Analysis. Pharmacokinetic parameters were estimated using the non-compartmental analysis tool of Phoenix® WinNonlin software (Ver 8.0).

T1 sequence (Q01959 whole entry, species assumed): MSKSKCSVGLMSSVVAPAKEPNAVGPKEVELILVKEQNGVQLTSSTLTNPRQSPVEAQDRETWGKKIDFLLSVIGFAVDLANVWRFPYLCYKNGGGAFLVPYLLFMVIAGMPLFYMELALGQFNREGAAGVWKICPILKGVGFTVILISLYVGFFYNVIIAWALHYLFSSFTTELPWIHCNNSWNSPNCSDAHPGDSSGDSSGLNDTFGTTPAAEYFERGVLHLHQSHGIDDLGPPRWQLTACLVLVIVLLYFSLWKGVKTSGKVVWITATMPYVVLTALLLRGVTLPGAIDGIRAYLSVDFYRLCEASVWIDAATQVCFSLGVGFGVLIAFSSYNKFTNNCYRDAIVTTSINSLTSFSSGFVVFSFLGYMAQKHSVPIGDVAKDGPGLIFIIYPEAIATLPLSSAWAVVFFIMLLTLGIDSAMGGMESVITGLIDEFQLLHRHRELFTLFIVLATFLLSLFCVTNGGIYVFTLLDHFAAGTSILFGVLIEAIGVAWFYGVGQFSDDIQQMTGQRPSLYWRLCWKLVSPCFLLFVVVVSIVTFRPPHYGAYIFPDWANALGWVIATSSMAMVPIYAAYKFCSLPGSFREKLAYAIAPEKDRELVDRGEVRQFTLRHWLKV
T2 sequence (Q05940 whole entry, species assumed): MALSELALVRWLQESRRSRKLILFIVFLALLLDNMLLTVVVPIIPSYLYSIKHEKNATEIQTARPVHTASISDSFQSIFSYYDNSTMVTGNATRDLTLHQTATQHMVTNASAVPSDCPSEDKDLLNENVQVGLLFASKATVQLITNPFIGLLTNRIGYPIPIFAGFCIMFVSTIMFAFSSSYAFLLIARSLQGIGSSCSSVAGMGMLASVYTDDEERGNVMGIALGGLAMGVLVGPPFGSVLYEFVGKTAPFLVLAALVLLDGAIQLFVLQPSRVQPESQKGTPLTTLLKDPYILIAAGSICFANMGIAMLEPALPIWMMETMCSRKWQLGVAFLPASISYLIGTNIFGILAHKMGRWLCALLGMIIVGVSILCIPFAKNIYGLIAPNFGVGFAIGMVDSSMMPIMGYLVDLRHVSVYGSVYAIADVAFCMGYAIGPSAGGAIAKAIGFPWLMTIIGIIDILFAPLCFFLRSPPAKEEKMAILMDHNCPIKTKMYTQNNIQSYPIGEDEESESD
T3 sequence (P31645 whole entry, species assumed): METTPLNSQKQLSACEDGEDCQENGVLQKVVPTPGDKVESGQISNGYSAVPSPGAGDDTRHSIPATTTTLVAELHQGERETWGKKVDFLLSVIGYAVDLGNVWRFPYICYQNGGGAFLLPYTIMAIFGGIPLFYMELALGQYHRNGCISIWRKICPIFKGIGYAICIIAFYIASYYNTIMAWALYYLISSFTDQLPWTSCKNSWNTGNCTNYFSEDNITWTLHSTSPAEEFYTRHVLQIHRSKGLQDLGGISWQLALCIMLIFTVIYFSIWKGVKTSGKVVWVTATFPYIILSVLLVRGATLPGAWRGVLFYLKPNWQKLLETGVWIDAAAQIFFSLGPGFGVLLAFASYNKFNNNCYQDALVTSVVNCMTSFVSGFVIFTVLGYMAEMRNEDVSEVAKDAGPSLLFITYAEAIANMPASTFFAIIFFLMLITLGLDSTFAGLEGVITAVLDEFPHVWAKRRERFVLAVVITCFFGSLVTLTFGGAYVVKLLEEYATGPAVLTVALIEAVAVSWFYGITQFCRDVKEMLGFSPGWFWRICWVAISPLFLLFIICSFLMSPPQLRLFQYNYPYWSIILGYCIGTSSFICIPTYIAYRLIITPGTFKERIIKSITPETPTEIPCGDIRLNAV

[2H]C([2H])([2H])N[C@@]1(c2ccccc2)CCCCC1=O [Compound 88R, (R)-2-((methyl-d3)amino)-2-phenylcyclohexan-1-one]
inhibition at 10 µM [1]: 7.9%
half-life at 1 μM [2]: 1.76 h
microsomal CLint at 1 μM [2]: 7 µL/min/mg
selectivity for NMDAR (over MATs) [3]: greater selectivity for NMDAR
inhibition at 10 µM [4]: 20.2%
inhibition at 10 µM [5]: 25.9%
AUC0-inf (iv) ([6]; brain, 10 mg/kg iv, Method B: values represent AUC0-last (footnote)): 334,518 ng*min/g
AUC0-last (po) ([6]; brain, 10 mg/kg po, Method B: values represent AUC0-last (footnote)): 143,445 ng*min/g
F ([6]; calculated based on brain exposure (AUC0-last), Method B): 43%
half-life ([6]; brain, 10 mg/kg iv, Method B, read-out: t1/2 (iv)): 0.6 h
Cmax ([6]; brain, 10 mg/kg po, Method B): 3100 ng/g
half-life ([6]; brain, 10 mg/kg po, Method B, read-out: t1/2 (po)): 1.33 h
AUC(0-inf) ([6]; plasma, 10 mg/kg iv, Method B: values represent AUC0-last (footnote), read-out: AUC0-inf (iv) (converted)): 1.53 µg·h/mL
half-life ([6]; plasma, 10 mg/kg iv, Method B, read-out: t1/2 (iv)): 0.57 h
Cmax ([6]; plasma, 10 mg/kg po, Method B): 0.621 µg/mL
AUC(0-inf) ([6]; plasma, 10 mg/kg po, Method B: values represent AUC0-last (footnote), read-out: AUC0-inf (po) (converted)): 0.718 µg·h/mL
half-life ([6]; plasma, 10 mg/kg po, Method B, read-out: t1/2 (po)): 1.38 h
F ([6]; plasma, Method B: based on AUC0-last): 47%
